Assay results reported in BigSolDB 2.1.

CC(=O)N1CCN(c2ccc(OC[C@@H]3CO[C@@](Cn4ccnc4)(c4ccc(Cl)cc4Cl)O3)cc2)CC1 (racemic)
solubility (mole fraction)
Settings	293.2 K	298.2 K	303.2 K	308.2 K	313.2 K
in isopropanol	0.000774	0.00102	0.00136	0.00204	0.00291
in propylene glycol	0.00148	0.00195	0.00264	0.0039	0.00562
